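Tested at 5 concentrations; 48 h exposure; 96-well plates; endpoints linearly interpolated, else capped at highest concentration. Abbreviation: GI50, concentration required for 50% inhibition of growth. Definition used: TGI = concentration required for complete inhibition of growth.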
How the values were obtained:
Assay in all cases: DTP human tumour cell line panel, 48 h
UO-31 renal = system: UO-31 renal
SF-539 CNS = system: SF-539 CNS
SK-OV-3 ovarian = system: SK-OV-3 ovarian
BT-549 breast = system: BT-549 breast
HCT-116 colon = system: HCT-116 colon
NCI-H23 lung = system: NCI-H23 lung
786-0 renal = system: 786-0 renal
IGROV1 ovarian = system: IGROV1 ovarian
MDA-MB-435 = system: MDA-MB-435
SR leukemia = system: SR leukemia

| Structure (SMILES) | TGI (UO-31 renal) [µM] | TGI (SF-539 CNS) [µM] | TGI (SK-OV-3 ovarian) [µM] | TGI (BT-549 breast) [µM] | TGI (HCT-116 colon) [µM] | TGI (NCI-H23 lung) [µM] | TGI (786-0 renal) [µM] | TGI (IGROV1 ovarian) [µM] | TGI (MDA-MB-435) [µM] | GI50 (UO-31 renal) [µM] | GI50 (SF-539 CNS) [µM] | GI50 (SR leukemia) [µM] | TGI (SR leukemia) [µM] | GI50 (NCI-H23 lung) [µM] | GI50 (786-0 renal) [µM] | GI50 (MDA-MB-435) [µM] | GI50 (SK-OV-3 ovarian) [µM] | GI50 (BT-549 breast) [µM] | GI50 (HCT-116 colon) [µM] | GI50 (IGROV1 ovarian) [µM] |
| --- | --- | --- | --- | --- | --- | --- | --- | --- | --- | --- | --- | --- | --- | --- | --- | --- | --- | --- | --- | --- |
| C/C(=N\NC(=O)CC#N)C(CN1CCCCC1)C(c1ccccc1)c1c(O)c2ccccc2oc1=O (centres undefined) | > 100 | > 100 | > 100 | > 100 | > 100 | > 100 | > 100 | > 100 | > 100 |  |  |  |  |  |  |  |  |  |  |  |
| CCN(CC)CCCOc1ccc2ncnc(Nc3ccc(Oc4cccc(C(F)(F)F)c4)c(Cl)c3)c2c1 | 2.26 | 3.17 |  |  |  | 3.05 | 2.95 |  | 3.22 | 1.06 | 1.74 | 1.41 | 3.76 | 1.56 | 1.54 | 1.65 |  |  |  |  |
| O=C1C=CC(=O)C2C1Cc1ccccc1C2c1ccccc1 (centres undefined) | > 100 | > 100 | > 100 |  | > 100 | > 100 | > 100 | > 100 |  |  |  |  | 59.1 |  |  |  |  |  |  |  |
| O=S(=O)(c1ccccc1)c1nccs1 | > 100 | > 100 | > 100 |  | > 100 | > 100 | > 100 | > 100 |  |  |  |  | > 100 |  |  |  |  |  |  |  |
| O=C(Nc1ccc2ncnc(Nc3ccc(Oc4cccc(F)c4)c(Cl)c3)c2c1)c1ccc(CN2CCOCC2)cc1 | 8.59 | 6.99 | > 100 | 7.56 | 8.94 | 5.89 | 4.33 | 5.5 | 5.39 | 1.81 | 2.51 |  |  | 2.09 | 1.97 | 2.18 | 1.66 | 2.3 | 2.55 | 1.4 |
| COc1cccc2c1C(=O)c1c(O)c3c(c(O)c1C2=O)C[C@@](O)(C(C)=O)C[C@@H]3OC1CC([N+]([O-])(Cc2ccccc2)Cc2ccccc2)C(O)C(C)O1 (some centres undefined) | 2.54 | 2.62 | 17.2 |  |  | 2.58 | 2.86 | 4.82 |  |  |  |  |  |  |  |  |  |  |  |  |
| C#CCN(N=O)C(=O)NCCCCC(NC(=O)OCc1ccccc1)C(=O)OCc1ccccc1 (centres undefined) | > 100 | 37.4 | > 100 |  | > 100 | > 100 | > 100 | > 100 |  |  |  |  |  |  |  |  |  |  |  |  |
| CCC[CH2][Sn]([CH2]CCC)([CH2]CCC)[O]C(=O)C(OC(C)=O)c1ccccc1 (centres undefined) | 0.292 | 0.306 | 0.273 |  | 0.276 | 0.262 | 0.295 | 0.323 |  | 0.157 | 0.165 |  |  | 0.131 | 0.157 |  | 0.12 |  | 0.136 | 0.153 |
| CC1(C)OC2CC3COC(=O)C3CC2O1 (centres undefined) | > 100 | > 100 | > 100 |  | > 100 | > 100 | > 100 | > 100 |  |  |  |  | > 100 |  |  |  |  |  |  |  |
| COc1cccc(OC(=O)c2ccc(C(F)(F)F)nc2Nc2c(C)cccc2Cl)c1 | 32 | 70.4 | > 100 | > 100 | > 100 | 19 | > 100 | 43.3 | > 100 | 15.1 | 23.4 |  |  | 1.84 | 27.7 | 35 | 32.9 | 30.4 | 25.6 | 15.1 |
| CCOP(=O)(OCC)/C(C#N)=C\c1ccsc1 | > 100 | > 100 | > 100 |  | > 100 | > 100 | > 100 |  |  |  |  |  |  |  |  |  |  |  |  |  |
| O=C(Nc1cc(Cl)ccc1Cl)c1cc2cccc(Br)c2oc1=O | > 100 | > 100 | > 100 |  | > 100 | > 100 | > 100 | > 100 |  |  |  |  |  |  |  |  |  |  |  |  |
| CN(C)CCNC(=O)c1cccc2nc3ccc4cccnc4c3nc12 | 2.4 | 1.1 | 8.53 |  | 2.43 | 1.35 | 10.9 |  |  |  |  |  |  |  |  |  |  |  |  |  |
| O=C1Nc2ccccc2/C1=C\c1cccc(/C=C2/C(=O)Nc3ccccc32)n1 | 2.37 | 2.23 | 2.76 |  | 0.296 | 2.43 | 2.49 | 1.67 | 1.81 | 0.779 | 0.966 | 0.231 | 4.88 | 0.855 | 1.08 | 0.355 | 1.21 |  | 0.155 | 0.44 |
| COc1cc2c(c(O)c1C)C(=O)CC(c1ccccc1)O2 (centres undefined) | > 100 | > 100 | > 100 |  | > 100 | > 100 | > 100 | > 100 |  |  |  |  |  |  |  |  |  |  |  |  |
| CC(N)Cc1ccc(Cl)cc1 (centres undefined) | > 100 | > 100 | > 100 |  | > 100 | > 100 | > 100 | > 100 |  |  |  |  | > 100 |  |  |  |  |  |  |  |
| Cn1cnc([N+](=O)[O-])c1Sc1nnnn1C | 32.6 | 36.3 | > 100 |  | 28 | 34.7 | 32.1 | 49.1 |  |  |  |  | 28.2 |  |  |  |  |  |  |  |
| COC1=CC(=O)C(Br)=CC1=O | 31.7 |  | > 100 |  |  | 40.8 | 32.9 | 31.1 |  |  |  |  |  |  |  |  |  |  |  |  |
| COc1cc2c3c(n(CCCCNC(=O)OC(C)(C)C)c(=O)c2cc1OC)-c1cc2c(cc1C3=O)OCO2 | > 100 | > 100 | > 100 | > 100 | > 100 | > 100 | > 100 | > 100 | > 100 | > 100 | 8.39 |  |  | > 100 | 25 | > 100 | > 100 | > 100 | > 100 | > 100 |
| COc1ccc2c3c(c(C(=O)O)oc13)CCC2 | > 100 | > 100 | > 100 |  | > 100 | > 100 | > 100 | > 100 |  |  |  |  | > 100 |  |  |  |  |  |  |  |
